Where a SMILES comes first, the peptide text is derived from it.
Columns and labels:
[1] = tested on: T:A (DNA, duplex) TCACCAGTCGTA/TACGACTGGTGA; assay: UV melting at 260 nm; conditions: 100 mM NaCl; 10 mM sodium phosphate pH 7.0, 1 mM EDTA; 5 μM DNA, 5 μM C1
[2] = tested on: T:THF (DNA, mismatch bulge abasic, tetrahydrofuran (THF) abasic analogue at 6 of strand 1, opposite T) TCACCNGTCGTA/TACGACTGGTGA; assay: UV melting at 260 nm; conditions: 100 mM NaCl; 10 mM sodium phosphate pH 7.0, 1 mM EDTA; 5 μM DNA, 5 μM C1
[3] = tested on: dU-containing oligodeoxynucleotide 5'-TCA(dU)CGT-3' (DNA, single strand, 2'-deoxyuridine at 4) TCAUCGT; assay: cyanoborohydride trapping, denaturing gel shift; conditions: 100 mM Hepes-K pH 7.3, 50 mM NaB(CN)H3, 18 °C overnight; 10 μM C1; covalent trapping only
[4] = tested on: T:A (DNA, duplex) TCACCAGTCGTA/TACGACTGGTGA; assay: CD forward titration, ICD at 500 nm; conditions: 100 mM NaCl; 10 mM sodium phosphate pH 7.0, 1 mM EDTA, 15 °C; apparent; non-specific binding
[5] = tested on: AP site-containing oligodeoxynucleotide (unlabeled) (DNA, single strand, natural AP site (from dU by UDG) at 4) TCANCGT; assay: ESI-MS / CID of reduced covalent complex; conditions: 100 mM Hepes-K pH 7.3, 50 mM NaB(CN)H3, 37 °C overnight
[6] = tested on: T:THF (DNA, mismatch bulge abasic, tetrahydrofuran (THF) abasic analogue at 6 of strand 1, opposite T) TCACCNGTCGTA/TACGACTGGTGA; assay: CD forward titration, ICD at 500 nm; conditions: 100 mM NaCl, 10 mM sodium phosphate pH 7.0, 1 mM EDTA, 15 °C, apparent
[7] = tested on: AP site-containing oligodeoxynucleotide (32P-labeled) (DNA, single strand, natural AP site (from dU by UDG) at 4) TCANCGT; assay: cyanoborohydride trapping, denaturing gel shift; conditions: 100 mM Hepes-K pH 7.3, 50 mM NaB(CN)H3, 18 °C overnight, covalent
[8] = tested on: T:AP (DNA, mismatch bulge abasic, natural apurinic/apyrimidinic site (from dU by UDG) at 6 of strand 1, opposite T) TCACCNGTCGTA/TACGACTGGTGA; assay: CD forward titration, ICD at 500 nm; conditions: 100 mM NaCl; 10 mM sodium phosphate pH 7.0, 1 mM EDTA, 15 °C; apparent; corrected for non-specific interactions (uncorrected 44 ± 5)

Row | ΔTm [1] | ΔTm [2] | binding [3] | KD [4] | binding [5] | KD ([6]; corrected for non-specific interactions (uncorrected 29 ± 1)) | binding ([7]; 10 μM C1, ~80% trapped) | KD [8] | KD ([6]; corrected for non-specific interactions (uncorrected 35 ± 1)) | binding ([7]; 2 mM KWKK) | SMILES
1 | 1 °C | 6.3 °C | no | 64 ± 3 µM | yes | 22 ± 1 µM | yes | – | – | – | CNCC#Cc1c(F)ccc2c1/C(=C/c1[nH]ccc1OC)C(=O)N2
2 | – | – | – | 69 ± 14 µM | – | – | – | 28 ± 2 µM | 28 ± 1 µM | – | COc1cc[nH]c1/C=C1\C(=O)Nc2ccc(F)c(C#CC3(O)CCNCC3)c21
3 | – | – | – | – | – | – | – | – | – | yes | NCCCC[C@H](NC(=O)[C@H](CCCCN)NC(=O)[C@H](Cc1c[nH]c2ccccc12)NC(=O)[C@@H](N)CCCCN)C(=O)O (H-KWKK-OH)

— article PMC4929455 (2016)
